Test results taken from paper PMC6969523, “Corazonin signaling integrates energy homeostasis and lunar phase to regulate aspects of growth and sexual maturation in Platynereis” (Proceedings of the National Academy of Sciences of the …, 2019).
Entries after “also recorded” stand apart in the source; their conditions may differ. Non-standard residues stand in square brackets, D forms with d. Residues, ends and D or L forms follow the SMILES beside them. pGlu = O=C1CC[C@@H](C(=O)O)N1

How the values were obtained:
[1] = target: T1, GnRHR2/AKHR2 (Platynereis dumerilii, UniProt A0A6B9MRA0); assay: Calcium mobilization (deorphanization) assay, GnRHR2/AKHR2; format: cell-based
T1 sequence (A0A6B9MRA0 1-355): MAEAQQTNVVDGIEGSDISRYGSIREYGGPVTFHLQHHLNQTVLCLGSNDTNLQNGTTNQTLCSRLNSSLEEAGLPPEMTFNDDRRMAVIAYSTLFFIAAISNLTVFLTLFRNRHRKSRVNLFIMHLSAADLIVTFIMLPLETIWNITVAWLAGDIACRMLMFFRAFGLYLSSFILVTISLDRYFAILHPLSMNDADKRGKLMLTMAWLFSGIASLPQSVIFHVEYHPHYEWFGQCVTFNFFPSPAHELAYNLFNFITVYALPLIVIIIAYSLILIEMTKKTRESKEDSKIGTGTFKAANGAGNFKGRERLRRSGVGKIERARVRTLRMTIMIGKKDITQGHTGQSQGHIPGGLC
From the text: (§1) We next took advantage of a cell culture-based calcium mobilization assay ([59]) for assessing the ligand–receptor interactions of these receptors. […] Given that a receptor for GnRHL3 was still missing, we tested ligand–receptor interactions of all identified Platynereis GnRH-like receptors. […] As we presently cannot exclude the existence of an additional GnRH-like receptor in Platynereis that might be activated by GnRHL3 at lower concentrations, we here use the more generic name (GnRHL3) for this ligand.
(§2) CrzRb was identified and initially deorphanized in ref. [54]. GnRHR1/AKHR1 and GnRHR2/AKHR2, as well as the second isoform of CrzR (CrzRa) were identified using an in silico approach and confirmed by cloning and sequencing. To facilitate deorphanization, cDNA of these receptors was amplified from laboratory Platynereis strains and cloned into the pcDNA3.1 (+) vector. […] Receptor activation was measured by monitoring calcium responses for 30 s on a Mithras LB 940 luminometer (Berthold Technologies). Percentage activation values of receptors were plotted for each receptor, and half maximal effective concentrations (EC50 value) were calculated using a computerized nonlinear regression analysis with a sigmoidal dose–response equation (GraphPad PRISM software). […]

[2] = target: T2, GnRHR1/AKHR1 (Platynereis dumerilii, UniProt A0A6B9MSD4); assay: Calcium mobilization (deorphanization) assay, GnRHR1/AKHR1; format: cell-based
T2 sequence (A0A6B9MSD4 1-359): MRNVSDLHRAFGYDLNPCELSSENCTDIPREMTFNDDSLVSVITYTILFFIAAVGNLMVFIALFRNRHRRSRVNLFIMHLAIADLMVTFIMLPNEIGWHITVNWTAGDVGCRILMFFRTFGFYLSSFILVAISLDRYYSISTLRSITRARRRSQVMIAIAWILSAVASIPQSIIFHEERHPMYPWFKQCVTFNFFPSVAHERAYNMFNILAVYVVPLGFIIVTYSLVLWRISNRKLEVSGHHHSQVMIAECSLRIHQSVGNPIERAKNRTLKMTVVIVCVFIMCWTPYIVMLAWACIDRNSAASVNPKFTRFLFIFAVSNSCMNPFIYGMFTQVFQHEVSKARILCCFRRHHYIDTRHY
From the text: as §1, §2

[3] = test system: GnRH-superfamily receptors; assay: Activation of GnRH-superfamily receptors in vitro; format: cell-based, Platynereis dumerilii
From the text: as §1, §2

[4] = target: CrzR; assay: Ligand-receptor interaction, Corazonin receptor (isoform not given); format: cell-based, Platynereis dumerilii
From the text: as §1, §2

[5] = target: T3, CrzRa (Platynereis dumerilii, UniProt A0A6B9MK47); assay: Calcium mobilization (deorphanization) assay, CrzRa; format: cell-based
T3 sequence (A0A6B9MK47 1-288): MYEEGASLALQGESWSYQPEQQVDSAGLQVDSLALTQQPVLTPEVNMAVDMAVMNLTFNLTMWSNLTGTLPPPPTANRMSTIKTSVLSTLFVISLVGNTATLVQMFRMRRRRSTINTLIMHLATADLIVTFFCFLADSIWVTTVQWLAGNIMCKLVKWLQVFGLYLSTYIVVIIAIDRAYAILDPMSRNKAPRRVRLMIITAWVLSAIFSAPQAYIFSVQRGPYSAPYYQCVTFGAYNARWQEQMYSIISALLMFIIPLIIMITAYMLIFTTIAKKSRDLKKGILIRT
From the text: as §1, §2

[6] = target: T4, CrzRb (Platynereis dumerilii, UniProt A0A291FE86); assay: Calcium mobilization (deorphanization) assay, CrzRb; format: cell-based
T4 sequence (A0A291FE86 1-422): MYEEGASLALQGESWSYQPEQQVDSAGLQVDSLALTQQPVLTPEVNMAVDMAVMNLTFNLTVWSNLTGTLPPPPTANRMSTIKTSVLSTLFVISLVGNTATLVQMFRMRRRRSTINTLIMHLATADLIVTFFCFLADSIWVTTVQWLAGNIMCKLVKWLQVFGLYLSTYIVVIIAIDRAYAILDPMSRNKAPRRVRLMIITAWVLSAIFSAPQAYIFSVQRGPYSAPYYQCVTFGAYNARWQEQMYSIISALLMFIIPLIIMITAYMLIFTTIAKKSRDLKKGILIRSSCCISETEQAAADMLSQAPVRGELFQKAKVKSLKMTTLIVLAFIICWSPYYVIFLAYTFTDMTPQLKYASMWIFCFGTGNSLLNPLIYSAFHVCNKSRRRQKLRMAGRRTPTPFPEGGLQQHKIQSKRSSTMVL
From the text: as §1, §2

[7] = test system: honeybee larvae; conditions: fed with swainsonine; ref SI 20; cited from earlier work
From the text: Cons e que nce s of lys os oma l α-ma n n o si d as e im p a i r me n t s i n o t h e r s pe ci es One of the molecular consequences of knocking out the Platynereis crz1/gnrhl1 gene that we reveal in this study is the strong reduction of lysosomal α-mannosidase. In huma ...

[8] = test system: glucose production; conditions: vertebrate glucagon; glycogenolysis and gluconeogenesis; ref [38], [66], [77]–[79]; cited from earlier work
From the text: The focus on the metabolic consequences of CRZ/GnRHL provides an interesting perspective for the cross-comparison of corazonin signaling with other signaling systems. The proposed role of worm CRZ1 in promoting the expression of α-glucosidases and pepck is reminiscent of the action of the GnRH-like AKH peptide in flies but also the role of vertebrate glucagon, an independent factor that has been discussed as a functional analog of insect AKH signaling ([38], [66], [77]–[79]). […] Thus, CRZ1/GnRHL1 see ...

[9] = test system: female mice; conditions: female mice injected with leptin; ref [50]–[52]; cited from earlier work
From the text: In turn, strong interconnections between the GnRH system and metabolism can also be found in several vertebrates. […] In mammals, GnRH release is also regulated by the orexigenic neuropeptide Y (NPY) and kisspeptin, which relays both sex steroid and leptin signaling to GnRH neurons ([49]). In line with this, a high-fat diet increases hypothalamic gnrh expression in prepubescent gilts ([50]), where this treatm ...

[10] = CHO cells stably expressing apo-aequorin and human Gα16, transient transfection, calcium response 30 s, luminometer, nonlinear regression, at least 4 replicates in at least 2 independent experiments
[11] = CHO cells, all receptors tested with all ligands
[12] = CHO cells, all receptor-ligand combinations tested, GnRHL3 at higher concentration (sub-micromolar to micromolar range)

Molecule: CC(C)C[C@H](NC(=O)[C@H](CO)NC(=O)[C@H](CCC(N)=O)NC(=O)[C@@H](NC(=O)[C@H](CC(C)C)NC(=O)[C@@H]1CCC(=O)N1)[C@@H](C)O)C(=O)NCC(=O)N[C@@H](Cc1c[nH]c2ccccc12)C(=O)NCC(=O)N[C@@H](CO)C(=O)N[C@@H](C)C(=O)NCC(=O)N[C@@H](CO)C(=O)N[C@@H](CO)C(N)=O [GnRH2/GnRHL4] ([pGlu]LTQSLGWGSAGSS-NH2)
- EC50 [1, 10]: 200 nM
- activation of GnRHR2/AKHR2 [1, 11]: specifically activated; also recorded: respond only to a single ligand
- EC50 [2, 10]: 11.5 nM
- activation of GnRHR1/AKHR1 [2, 11]: specifically activated; also recorded: respond only to a single ligand
- activation of GnRH-superfamily receptors in vitro [3]: activate GnRH-superfamily receptors in vitro

Molecule: CC(C)C[C@H](NC(=O)[C@H](CO)NC(=O)[C@H](Cc1ccccc1)NC(=O)[C@H](CO)NC(=O)[C@H](Cc1ccccc1)NC(=O)[C@@H]1CCC(=O)N1)C(=O)N1CCC[C@H]1C(=O)NCC(=O)N[C@@H](CCCCN)C(=O)N[C@@H](Cc1c[nH]c2ccccc12)C(=O)NCC(=O)N[C@@H](CC(N)=O)C(N)=O [GnRHL3] ([pGlu]FSFSLPGKWGN-NH2)
- EC50 levels for CrzR activation compared with the other CRZ ligands ([4]; GnRHL3-CrzR activation assay versus other CRZ ligands): significantly higher
- activation of CrzR ([4]; ligand-receptor interaction analyses, isoform not stated): activated
- EC50 [5, 10]: 500 nM
- activation of CrzRa [5, 12]: also respond; also recorded: at higher concentration
- EC50 [6, 10]: 5800 nM
- activation of CrzRb [6, 12]: also respond; also recorded: at higher concentration
- activation of GnRH-superfamily receptors in vitro [3]: activate GnRH-superfamily receptors in vitro

Molecule: O[C@H]1[C@H]2[C@H](O)CCCN2C[C@H]1O [swainsonine]
- development of honeybee larvae [7]: developmental delay in pupal metamorphosis

Molecule: glucagon
- glucose production [8]: increased glucose production

B1: leptin: leptin, injected in female mice (protein, UniProt P41160 22-167, looked up)
Leptin: VPIQKVQDDTKTLIKTIVTRINDISHTQSVSAKQRVTGLDFIPGLHPILSLSKMDQTLAVYQQVLTSLPSQNVLQIANDLENLRDLLHLLAFSKSCSLPQTSGLQKPESLDGVLEASLYSTEVVALSRLQGSLQDILQQLDVSPEC
- puberty onset [9]: advances puberty onset
